The target of this assay is Steroidogenic factor 1 (Homo sapiens, UniProt Q13285). The assay can be described thus: SF-1 inhibitors in Gal4 reporter counter-screen, dose response, counter-screen for RORA inhibitor project, cell-based, CHO-K1, Gal4-SF-1 LBD, luciferase luminescence (AID 611). On the technique in general: A counterscreen serves to expose hits that act by an unwanted route or on another target.

As usually defined, the IC50 is the concentration at which inhibition is half-maximal.

Chain of Steroidogenic factor 1 (Q13285 whole entry, the tested form may be a part): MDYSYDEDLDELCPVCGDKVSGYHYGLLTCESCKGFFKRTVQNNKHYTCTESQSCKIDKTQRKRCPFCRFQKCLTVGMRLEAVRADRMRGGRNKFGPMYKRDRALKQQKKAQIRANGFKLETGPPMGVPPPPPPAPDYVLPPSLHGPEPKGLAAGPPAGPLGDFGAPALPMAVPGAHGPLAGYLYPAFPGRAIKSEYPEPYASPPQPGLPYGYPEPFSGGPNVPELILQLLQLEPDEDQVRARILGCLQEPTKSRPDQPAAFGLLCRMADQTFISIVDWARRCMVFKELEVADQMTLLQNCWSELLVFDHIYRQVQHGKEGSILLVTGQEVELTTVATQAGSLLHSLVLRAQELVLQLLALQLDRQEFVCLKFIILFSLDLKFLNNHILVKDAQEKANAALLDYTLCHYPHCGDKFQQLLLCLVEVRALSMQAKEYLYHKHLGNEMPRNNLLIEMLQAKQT

As to `COc1ccccc1-c1cc(C(F)(F)F)nc(S(=O)(=O)CCCC(=O)NC(C)C)n1` [4-[4-(2-methoxyphenyl)-6-(trifluoromethyl)pyrimidin-2-yl]sulfonyl-N-propan-2-yl-butanamide], half-maximal inhibition (IC50) was put at 9.35 µM.
Under `COc1cccc(NC(=O)CSc2nnc(-c3cc(C)n(-c4ccccc4)c3C)o2)c1` [2-[[5-(2,5-dimethyl-1-phenyl-3-pyrrolyl)-1,3,4-oxadiazol-2-yl]thio]-N-(3-methoxyphenyl)acetamide] stands 3.76 µM.
`COc1ccc(C=Nn2nnc3ccccc32)cc1` [MLS000043825] displayed an IC50 of 4 µM.
With `COc1cccc(N2CCN(c3ncnc4c3[nH]c3ccccc34)CC2C)c1` (stereo not drawn) [4-[4-(3-methoxyphenyl)-3-methyl-1-piperazinyl]-5H-pyrimido[5,4-b]indole] the figure was 4.85 µM; with `O=S1(=O)C=C(Sc2nc3ccccc3s2)c2ccccc21` [2-[(1,1-dioxido-1-benzothien-3-yl)thio]-1,3-benzothiazole], 2.67 µM.
Under `O=C(CSc1nnnn1-c1ccccc1)Nc1nsc(-c2ccc(Cl)cc2)n1` [MLS000085595] stands 5.78 µM; under `CCc1ccc(-c2nc(CSCC(=O)NCCCN3CCCC3=O)c(C)o2)cc1` [2-({[2-(4-ethylphenyl)-5-methyl-1,3-oxazol-4-yl]methyl}thio)-N-[3-(2-oxopyrrolidin-1-yl)propyl]acetamide], 5.56 µM; under `Cc1cc(C=Nn2cnnc2)c(C)n1-c1ccc(OCc2ccccc2F)cc1` [MLS000112180], 7.58 µM.
